Values after ≈ are worked out from the molar mass of the structure shown.
Key:
[1] = test system: adult totipotent blastomeric-like stem cells; assay: induction of blastomeric-like stem cells in culture; assay type: cell-based, rat; details: for response to progression agents: lineage-uncommitted BLSCs
Text: 1961; Rohme 1981; Young and Black, 2005a].
FIG. 7. Blastomeric-like stem cells (BLSCs) harvested from male Sprague-Dawley out bred rat 0001 and propagated from a single cell derived by serial dilution clonogenic analysis, then genomically labeled with LacZ to synthesize the beta-galactosidase gene product. Clone designated as Scl-44beta. […] B-L is phase contrast microscopy to show unstained cells in field of view. […] Original magnification 200×.
FIG. 8. Blastomeric-like stem cells (BLSCs) harvested from male Sprague-Dawley out bred rat 0001 and propagated from a single cell derived by serial dilution clonogenic analysis, then genomically labeled with LacZ to synthesize the beta-galactosidase gene product. Clone designated as Scl-44beta.

[2] = test system: adult pluripotent epiblast-like stem cells; assay: induction of epiblast-like stem cells in culture; assay type: cell-based, rat; details: for response to progression agents: lineage-uncommitted ELSCs
[3] = test system: adult-derived regenerative pluripotent transitional blastomere-like stem cells; assay: differentiation of Tr-BLSCs after exposure to dexamethasone; assay type: cell-based; details: extended exposure to a range of dexamethasone concentrations
Text: After extended exposure to a range of dexamethasone concentrations, adult-derived regenerative pluripotent transitional blastomere-like stem cells differentiated into more than 50 discrete cell types.

[4] = solubility of dexamethasone; assay type: physicochemical
Procedure: Dexamethasone solution, pH 7.4: This is typically made up in absolute ethanol (EtOH) because it is not soluble in water or media. Weigh out 0.039 gm of Dexamethasone (Dex, catalog #D-1756, Sigma) and add to 10 ml of absolute EtOH. This will make a 1×10^−2 M stock solution. Store this solution at −20° C. This is the most concentrated solution of Dex that can be made with complete solubility. Add 1 ml of the stock Dex solution made above to 9-ml Opti-MEM I medium with Glutamax. Aliquot 9 ml of this solution as 500 μl quantities in 2 ml cryovials and store at −20° C. Label these tubes as […]. Take the remaining 1 ml of 10^−6M Dex and add to 9 ml of Opti-MEM I medium with Glutamax. Aliquot 9 mls and reserve 1 ml as before. Label these tubes as 1×10^−7M Dex. Take the remaining 1 ml of 10^−7M Dex and add to 9 ml of Opti-MEM I medium with Glutamax. Aliquot 9 mls and reserve 1 ml as before. Label these tubes as 1×10^−8M Dex. Take the remaining 1 ml of 10^−8M Dex and add to 9 ml of Opti-MEM I medium with Glutamax. Aliquot 9 mls and reserve 1 ml as before. Label these tubes as 1×10^−9M Dex. Take the remaining 1 ml of 10^−9M Dex and add to 9 ml of Opti-MEM I medium with Glutamax. Aliquot all 10 mls. Label these tubes as 1×10^−10M Dex. These aliquots will bring 500 mls of media to the concentration of Dex labeled on the tube. Store the cryovials at −20° C.

Row | Molecule | response to progression agents [1] | response to progression agents [2] | also measured
1 | IGF-I: progression agent | unresponsive | unresponsive | –
2 | hepatocyte growth factor: lineage-induction agent | – | – | response to lineage-induction agent ([1]; BLSCs): forming cells belonging to the endodermal lineage; response to lineage-induction agent ([2]; ELSCs): forming cells belonging to the endodermal lineage
3 | C[C@@H]1C[C@H]2[C@@H]3CCC4=CC(=O)C=C[C@]4(C)[C@@]3(F)[C@@H](O)C[C@]2(C)[C@@]1(O)C(=O)CO [dexamethasone, Dexamethasone] | – | – | discrete cell types formed [3]: more than 50 discrete cell types; solubility in water or media [4]: not soluble; solubility ([4]; absolute ethanol, organic solvent or mixture, thermodynamic from solid, absolute EtOH, read-out: most concentrated solution with complete solubility): 10 mM (≈ 3920 µg/mL)
4 | IGF-II: progression agent | unresponsive | unresponsive | –
5 | insulin: progression agent | unresponsive | unresponsive | induction in the presence of insulin ([1]; clone Scl-44beta, insulin at 2 micrograms per ml, absence of inhibitors): no induction occurs

Reference: patent publication US20130071357A1, “IDENTIFICATION, PROLIFERATION IN SITU, HARVESTING, SEPARATION, AND TRANSPLANTATION OF ADULT-DERIVED REGENERATIVE PLURIPOTENT TRANSITIONAL BLASTOMERE-LIKE STEM CELLS AND METHODS OF TREATMENT THEREOF” (HEYGEN, LLC, priority 2011, published 2013)
